Laboratory results taken from PMC6830379 (International Journal of Nanomedicine, 2019).
Structures can show the parent of a compound that is named as a salt. Where two headings read alike, the source gives them in different places.

What was measured:
[1] = Determination of SQR solubility in oils, surfactants and co-surfactants; format: physicochemical; settings: ethanol
[2] = cited from earlier work
[3] = depending on the dosage form; reported, ref not given; cited from earlier work

## CC(C)(C)NC(=O)[C@@H]1C[C@@H]2CCCC[C@@H]2CN1C[C@@H](O)[C@H](Cc1ccccc1)NC(=O)[C@H](CC(N)=O)NC(=O)c1ccc2ccccc2n1 [SQR, Saquinavir mesylate]
[1]
  solubility at 72 h: 126 mg/mL
[2]; pH of 6.5
  aqueous solubility: 0.073 mg/mL
[2]; pH of 7.4
  aqueous solubility: 0.036 mg/mL
[3]
  oral bioavailability: 0.7–4.0%
